{
  "source": "patent US20180221435A1",
  "about": "“ITCH TREATMENT USING A COMBINATION OF NEUROKININ-1, GASTRIN RELEASING PEPTIDE, AND GLUTAMATE RECEPTOR ANTAGONISTS” (The Regents of the University of California, priority 2013, published 2018)",
  "key": {"[1]": {"tested_on": "superficial dorsal horn neurons", "test": "In vivo single-unit recording, noxious pinch-evoked responses, spinal superfusion of antagonists", "parameters": "species or system mice", "details": "pinch at end of 1 min superfusion", "method": "Akiyama T et al., The Journal of neuroscience: the official journal of the Society for Neuroscience 29(20):6691-6699 (2009)]. Anesthesia was induced by sodium pentobarbital (60 mg/kg ip) and maintained by supplemental injections (10-20 mg/kg/hr). […] A tungsten microelectrode recorded single-unit activity in the lumbar spinal cord. A chemical search strategy [Akiyama T et al., Journal of neurophysiology 102(4):2176-2183 2009; […] Units were classified as wide dynamic range (WDR)-type if they responded in a graded manner to innocuous mechanical stimulation (brushing, cotton wisp) and noxious pinch, or nociceptive-specific (NS) if they responded to noxious pinch (and to the 55 mN von Frey stimulus) but not to the cotton wisp or brush stimuli. […] Akiyama T et al., The Journal of neuroscience: the official journal of the Society for Neuroscience 29(20):6691-6699 (2009)]. […] At the end of the antagonist superfusion, the noxious pinch stimulus was delivered again at the same site on the receptive field. Thirty minutes later, the noxious pinch stimulus was delivered in the same manner. Action potentials were recorded to a computer and counted using Chart software (AD Instruments, Colorado Springs Colo.) and Spike2 software (CED Instruments). […]"}, "[2]": {"tested_on": "superficial dorsal horn neurons", "test": "Baseline activity of superficial dorsal horn neurons before and after antagonist application", "format": "in vivo, mice", "details": "± SEM", "method": "The single-unit recording from the lumbar spinal cord was conducted as previously detailed [Akiyama T et al., Journal of neurophysiology 102(4):2176-2183 (2009); Akiyama T et al., The Journal of neuroscience: the official journal of the Society for Neuroscience 29(20):6691-6699 (2009)]. Anesthesia was induced by sodium pentobarbital (60 mg/kg ip) and maintained by supplemental injections (10-20 mg/kg/hr). A gravity-driven perfusion system allowed artificial cerebrospinal fluid (Krebs: 117 mM NaCl, 3.6 mM KCl, 2.5 mM CaCl2, 1.2 mM MgCl2, 1.2 mM NaH2PO4, 25 mM NaHCO3 and 11 mM glucose which was equilibrated with 95% 02 and 5% CO2 at 37° C.) to be superfused continually over the exposed lumbosacral spinal cord [Akiyama T et al., PloS one 6(7):e22665 (2011)]. A tungsten microelectrode recorded single-unit activity in the lumbar spinal cord. A chemical search strategy [Akiyama T et al., Journal of neurophysiology 102(4):2176-2183 2009; Akiyama T et al., The Journal of neuroscience: the official journal of the Society for Neuroscience 29(20):6691-6699 (2009)] was used to identify and isolate chloroquine-responsive units. Our search strategy was intended to maximize the chance of isolating a chloroquine-responsive neuron; it was assumed that such neurons either gave rise to ascending projections, or served as interneurons in segmental scratch-reflex circuitry, and no attempt was presently made to distinguish between these possibilities.\nThere was no significant effect of any of the antagonists on the baseline activity of superficial dorsal horn neurons that were subsequently show to respond to pruritogens. […] Values prior to, and after administration of each antagonist individually or in combination, are as follows. NK-1 antagonist L-733060: pre-application 0.88 Hz±0.23 (SEM), post-antagonist 0.72 Hz±0.19 (n=10). GRPR antagonist RC-3095: pre-application 0.54 Hz±0.54, post-antagonist: 0.53 Hz±0.53 (n=4). CNQX: pre-application 0.53 Hz±0.14, post-antagonist 0.64 Hz±0.21 (n=22). CNQX+L-733060: pre-application 0.52 Hz±0.17, post-antagonists 0.43 Hz±0.11 (n=26). CNQX+L-733060+RC-3095: pre-application 0.14 Hz±0.06, post-antagonists 0.17 Hz±0.06 (n=9)."}},
  "data": [
    {"molecule": "N#Cc1cc2[nH]c(=O)c(=O)[nH]c2cc1[N+](=O)[O-]", "note": "[CNQX]", "values": [
      {"measurement": "noxious pinch-evoked response, effect of spinal superfusion", "setting": "[1]", "result": "significantly reduced"},
      {"measurement": "baseline neuronal firing rate, post-antagonist", "setting": "[2]; averaged over 1 min following antagonist application", "result": 0.64, "unit": "Hz"},
      {"measurement": "baseline neuronal firing rate, pre-application", "setting": "[2]; averaged over 1 min prior to antagonist application", "result": 0.53, "unit": "Hz"}
    ]}
  ]
}
